Results as given in PubChem BioAssay AID1250 (SRMLSC, 2008).
Calls of active or inactive are those of the source.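 The calls were made as follows: active = inhibition of at least 30% at one or more tested concentrations; inactive = inhibition below 30% at every dose.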

assay: antiviral protection against BTV-induced cell death – arbovirus, BSR cells, confirmation (AID 1250); conditions: BSR cells, Bluetongue virus CPE, ATP luminescence, 72 h; at 20 µM (top of the series)

Row | Structure (SMILES) | CPE inhibition
1 | OC(CNC1CCCCC1)CNC1CCCCC1 | 7.57% (inactive)
2 | CCCCCc1nnc(NC(=O)C2COc3ccccc3O2)s1 (centres undefined) | 17.9% (inactive)
3 | O=c1[nH]c(=O)n(C(c2ccccc2)c2ccccc2)cc1Br | 18.7% (inactive)
4 | N#C/C(=C\c1cc2ccccc2nc1N1CCCCC1)C(N)=O | 22.5% (inactive)
5 | CCOc1ccc2nc(NC(=O)C3=NN(c4ccccc4)C(=O)CC3)sc2c1 | 25% (inactive)
6 | O=C(O)CCCC(=O)Nc1nc2n(n1)C(c1ccc(F)cc1)CC(c1ccc(Cl)cc1)N2 (centres undefined) | 2.43% (inactive)
7 | Cc1nn(CC(O)Cn2c3c(c4ccccc42)CCN(C)C3=O)c(C)c1Br (centres undefined) | 22.4% (inactive)
8 | COc1cccc(C2CC(c3ccc(Cl)cc3Cl)Nc3nc(N)nn32)c1 (centres undefined) | 2.82% (inactive)
9 | O=C(N/N=C/c1c(O)n(-c2ccccc2Cl)c(=O)c2ccccc12)c1cccnc1 | 26% (inactive)
10 | O=C(Nc1nnc(SCc2ccccc2Cl)s1)C1COc2ccccc2O1 (centres undefined) | 16.7% (inactive)
11 | O=C(Nc1nc2ccccc2s1)c1ccc(N2CCCCC2)c([N+](=O)[O-])c1 | 22.1% (inactive)
12 | Cc1nc(Nc2ccccc2)sc1-c1ccccc1 | 3.32% (inactive)
13 | CSc1ncc(Cl)c(C(=O)C(C#N)c2nc3c(C)cc(C)cc3c(=O)[nH]2)n1 (centres undefined) | 20.1% (inactive)
14 | COc1ccccc1NC(=O)C12CC3CC(C1)CC(c1ccc(C)cc1)(C3)C2 | 18.9% (inactive)
15 | CCN(CC)C(=O)CSC1=N/C(=C/c2ccco2)C(=O)N1c1ccc(OC)c(Cl)c1 | 13.3% (inactive)
16 | CC(C)C(=O)Nc1nnc(SCC(=O)N2c3ccccc3CC2C)s1 (centres undefined) | 11.5% (inactive)
17 | CS(=O)(=O)c1nsc2nc(=O)c(/C=C3\C=Nc4ccccc43)c(N)n12 | 14.8% (inactive)
18 | COC(=O)c1ccccc1NC(=O)CN1CCC(n2nnc3cc(C(F)(F)F)ccc32)CC1 | 16.3% (inactive)
19 | Fc1ccccc1N1CCN(Cc2nc(-c3ccc(Cl)cc3Cl)no2)CC1 | 19.9% (inactive)
20 | O=C(NCCN1C(=O)S/C(=C/c2cccnc2)C1=O)C1CC(=O)N(Cc2ccccc2)C1 (centres undefined) | 3.69% (inactive)
21 | COc1ccc2nc(N3C(=O)CC(Cc4cc(C)cc(C)c4)C3=O)sc2c1 (centres undefined) | 13.6% (inactive)
22 | C=C(C)CN(CC)C(=O)CSc1nc(O)cc(=O)n1C1CCCC1 | -1.91% (inactive)
23 | CCOc1ccc(-n2c(=S)sc3c(=O)[nH]c(SCC(=O)C(C)(C)C)nc32)cc1 | 7.23% (inactive)

Row | Structure (SMILES) | CPE inhibition
24 | COCCn1c(-c2ccc(Cl)cc2)cnc1SCC(=O)NCc1cccs1 | 18.9% (inactive)
25 | CCCc1cc(=O)[nH]c(SCC(=O)NC)n1 | -0.15% (inactive)
26 | COc1ccc(C(=O)Nc2sc3c(c2C(=O)O)CC(C)(C)OC3)cc1 | 27.2% (inactive)
27 | O=C(Nc1nc(-c2ccccc2)cs1)c1ccc(=O)[nH]c1 | 12% (inactive)
28 | Cc1ccc(-n2nc(C)c(NC(=O)CCl)c2C)cc1 | 13.3% (inactive)
29 | CCCCn1c(SCC(=O)N2CCN(c3ccccc3)CC2)nc2ccsc2c1=O | 6.77% (inactive)
30 | COc1ccc(OC)c(/C=N\NC(=O)CC(=O)NCCc2ccccc2)c1 | -1.6% (inactive)
31 | O=C(CSc1ncn[nH]1)Nc1nc(-c2ccccc2)ns1 | 6.55% (inactive)
32 | Cc1cccc(N2CCN(C(=O)C3COc4ccccc4O3)CC2)c1C (centres undefined) | 19.7% (inactive)
33 | CCC(C)Sc1nc2c(c(=O)[nH]1)C(c1cccs1)C1=C(CCCC1=O)N2 (centres undefined) | 10.1% (inactive)
34 | OC(CNCC1(N2CCCCC2)CCCCC1)COc1ccc(Cl)cc1Cl (centres undefined) | 11.6% (inactive)
35 | O=c1[nH]n2c(=O)c3c([nH]c2c1N=Nc1cccc(Cl)c1)CCC3 | 16.8% (inactive)
36 | CN1CCc2nc3sc(C#N)c(N)c3c(-c3cccs3)c2C1 | 10.1% (inactive)
37 | CC(C)Oc1cccc(C(=O)NC(=S)Nc2ccccc2)c1 | 6.77% (inactive)
38 | Cc1cccc(-n2nc(C)c3c(C(=O)O)cc(-c4cccs4)nc32)c1 | 24.9% (inactive)
39 | COc1ccccc1N1CCN(Cc2cc(C)c(C)cc2O)CC1 | 25.1% (inactive)
40 | OCCNc1nc(Nc2ccccc2)nc2ccccc12 | 15.3% (inactive)
41 | Cc1cccc(C)c1Nc1nnc(SC/C(O)=C(\C#N)c2nc3ccccc3[nH]2)s1 | 16.8% (inactive)
42 | COc1cc2ccccc2cc1C(=O)NC(=S)Nc1cc(C(=O)O)ccc1C | 17.8% (inactive)
43 | O=C(O)c1ccc(-c2nc(-c3ccc(Cl)cc3)cs2)cc1 | 16.2% (inactive)
44 | Cc1cccc(OCC(=O)Nc2cccc(C(=O)Nc3ccccc3C(=O)O)c2)c1 | 27.3% (inactive)
45 | O=C(NC(=S)NCCC1=CCCCC1)c1ccccc1Br | 28.5% (inactive)
46 | O=C(O)c1cnc(-c2ccccc2)nc1Sc1ccc(Cl)cc1 | 15.2% (inactive)

Row | Structure (SMILES) | CPE inhibition
47 | CCc1ccc(C(=O)Nc2ccc(S(=O)(=O)Nc3nc(C)cc(C)n3)cc2)o1 | 24.5% (inactive)
48 | O=C(Nc1ccccc1C(=O)O)c1cccc(NC(=O)c2ccc(Br)o2)c1 | 7.57% (inactive)
49 | CCc1nnc(NC(=O)c2cc3ccccc3oc2=O)s1 | -0.17% (inactive)
50 | COc1ccc(S(=O)(=O)N/N=C(/C)c2cccc(NC(=O)c3ccccc3Cl)c2)cc1 | 15% (inactive)
51 | COc1ccc(NC(=O)C(=O)N/N=C/c2cc(C)n(-c3cccc(Cl)c3Cl)c2C)c(OC)c1 | 20.7% (inactive)
52 | O=C(O)c1c(NC(=O)c2cccc3ccccc23)sc2c1CCC2 | 0.01% (inactive)
53 | Cc1cc(C(=O)CSc2nnc(-c3ccco3)o2)c(C)n1Cc1ccco1 | 2.98% (inactive)
54 | Oc1c(Br)cc(C2N=C(c3ccccc3)NO2)cc1Br (centres undefined) | 23.9% (inactive)
55 | CC(C)S(=O)(=O)c1nsc2nc(=O)c(/C=C3\C=Nc4ccccc43)c(N)n12 | 22% (inactive)
56 | O=[N+]([O-])c1cc(/C=N\Nc2nc(-c3ccccc3)cs2)ccc1O | 26.1% (inactive)
57 | CCOC(=O)c1nn(-c2ccc(Cl)cc2)c2nc(Nc3ccccc3)cc(=O)n12 | 28.9% (inactive)
58 | CCOC(=O)c1c(NC(=O)CSc2ncn[nH]2)sc(C)c1C | 21% (inactive)
59 | C=CCNC(=O)c1onc(CSc2ccc(C(C)C)cc2)c1C(=O)O | 1.33% (inactive)
60 | O=c1oc(-c2cccs2)nc2sc3c(c12)CCCC3 | 21.2% (inactive)
61 | CN(C)/N=C/c1ccc(P(c2ccc(/C=N/N(C)C)o2)c2ccc(/C=N/N(C)C)o2)o1 | 10.4% (inactive)
62 | COc1ccc(-c2csc(Nc3ccc(S(=O)(=O)Nc4cc(C)on4)cc3)n2)cc1 | 14.2% (inactive)
63 | Oc1ccccc1CNCCCNCc1ccccc1O | 20.8% (inactive)
64 | CCC1=NN2C(=N)/C(=C\c3cccn3-c3ccc(C)cc3C)C(=O)N=C2S1 | 27.2% (inactive)
65 | N#C/C(=C\c1cn[nH]c1-c1ccc(Cl)cc1)C(=O)NCc1ccccc1 | 12.6% (inactive)
66 | O=C1c2[nH]nc(-c3ccccc3O)c2C(c2ccc(F)cc2)N1CC1CCCO1 (centres undefined) | 10.9% (inactive)
67 | Cc1cccc2c1-c1sc(C(=O)Nc3nccs3)cc1CO2 | 27% (inactive)
68 | Cc1nc(NS(=O)(=O)c2ccccc2C)c2c3c(sc2n1)CCC3 | 27.6% (inactive)
69 | COc1cccc2sc(NN)nc12 | 15.8% (inactive)
